What was measured:
Aurora-B = Aurora-B (Homo sapiens, UniProt Q96GD4); assay: Kinase inhibition; assay type: biochemical
Source text: (§1) In vitro tyrosine kinase inhibition activities can be measured via commercial resources. Some of these tests can also be contracted with Eurofin or Reaction Biology for screening.
(§2) For the kinase inhibition tests, receptor tyrosine kinases are selected from FGFR1(h), FGFR2(h), FGFR3(h), Flt1(h) (VEGFr1), Flt4(h) (VEGFr3), KDR(h) (VEGFr2), Aurora-B, PDGFRα(h) and PDGFRβ(h).

FGFR1(h) = FGFR1(h) (Homo sapiens, UniProt P11362); assay: Kinase inhibition; assay type: biochemical
Sequence of FGFR1(h) (P11362 22-822): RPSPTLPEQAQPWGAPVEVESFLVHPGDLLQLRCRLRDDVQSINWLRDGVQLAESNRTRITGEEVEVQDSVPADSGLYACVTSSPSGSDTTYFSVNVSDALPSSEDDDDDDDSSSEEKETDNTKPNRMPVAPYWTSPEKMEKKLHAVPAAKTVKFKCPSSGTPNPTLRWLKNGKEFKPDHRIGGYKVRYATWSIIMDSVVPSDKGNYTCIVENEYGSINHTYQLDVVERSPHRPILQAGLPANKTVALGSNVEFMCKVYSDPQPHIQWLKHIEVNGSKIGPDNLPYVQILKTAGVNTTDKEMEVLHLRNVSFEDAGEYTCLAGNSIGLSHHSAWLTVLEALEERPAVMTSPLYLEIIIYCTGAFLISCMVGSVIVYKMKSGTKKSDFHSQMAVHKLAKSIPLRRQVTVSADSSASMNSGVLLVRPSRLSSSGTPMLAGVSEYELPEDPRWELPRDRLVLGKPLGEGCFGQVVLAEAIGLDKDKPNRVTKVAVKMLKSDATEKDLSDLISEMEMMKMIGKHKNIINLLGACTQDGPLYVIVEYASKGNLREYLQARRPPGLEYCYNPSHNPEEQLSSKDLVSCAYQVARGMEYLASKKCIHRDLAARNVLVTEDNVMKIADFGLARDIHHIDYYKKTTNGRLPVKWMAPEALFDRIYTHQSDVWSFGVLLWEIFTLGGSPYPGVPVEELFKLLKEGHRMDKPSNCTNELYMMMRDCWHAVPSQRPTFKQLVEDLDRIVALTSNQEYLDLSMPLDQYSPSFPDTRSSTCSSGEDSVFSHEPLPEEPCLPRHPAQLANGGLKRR
Source text: as §1, §2

FGFR2(h) = FGFR2(h) (Homo sapiens, UniProt P21802); assay: Kinase inhibition; assay type: biochemical
Sequence of FGFR2(h) (P21802 22-821): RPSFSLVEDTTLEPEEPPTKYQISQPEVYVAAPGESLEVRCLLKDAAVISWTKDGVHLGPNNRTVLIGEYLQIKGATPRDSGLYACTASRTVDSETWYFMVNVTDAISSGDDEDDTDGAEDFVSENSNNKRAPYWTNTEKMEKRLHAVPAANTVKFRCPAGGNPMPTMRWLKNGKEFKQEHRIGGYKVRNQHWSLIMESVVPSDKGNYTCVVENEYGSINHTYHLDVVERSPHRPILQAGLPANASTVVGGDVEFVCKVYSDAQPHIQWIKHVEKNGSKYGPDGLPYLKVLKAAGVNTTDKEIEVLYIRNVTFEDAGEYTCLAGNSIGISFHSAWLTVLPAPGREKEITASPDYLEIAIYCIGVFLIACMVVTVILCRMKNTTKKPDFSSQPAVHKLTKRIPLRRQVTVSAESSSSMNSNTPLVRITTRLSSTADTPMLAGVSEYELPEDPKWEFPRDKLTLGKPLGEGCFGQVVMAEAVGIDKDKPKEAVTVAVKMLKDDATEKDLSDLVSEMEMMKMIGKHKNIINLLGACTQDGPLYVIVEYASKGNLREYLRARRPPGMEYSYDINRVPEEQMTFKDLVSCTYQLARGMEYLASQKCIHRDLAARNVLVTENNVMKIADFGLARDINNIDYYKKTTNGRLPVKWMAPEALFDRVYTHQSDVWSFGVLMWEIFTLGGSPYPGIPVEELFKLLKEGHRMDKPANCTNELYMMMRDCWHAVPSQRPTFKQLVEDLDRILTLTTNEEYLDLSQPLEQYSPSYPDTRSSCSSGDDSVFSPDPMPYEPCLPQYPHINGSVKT
Source text: as §1, §2

FGFR3(h) = FGFR3(h) (Homo sapiens, UniProt P22607); assay: Kinase inhibition; assay type: biochemical
Source text: as §1, §2

Flt1(h) (VEGFr1) = Flt1(h) (VEGFr1) (Homo sapiens, UniProt P17948); assay: Kinase inhibition; assay type: biochemical
Sequence of Flt1(h) (VEGFr1) (P17948 27-1338): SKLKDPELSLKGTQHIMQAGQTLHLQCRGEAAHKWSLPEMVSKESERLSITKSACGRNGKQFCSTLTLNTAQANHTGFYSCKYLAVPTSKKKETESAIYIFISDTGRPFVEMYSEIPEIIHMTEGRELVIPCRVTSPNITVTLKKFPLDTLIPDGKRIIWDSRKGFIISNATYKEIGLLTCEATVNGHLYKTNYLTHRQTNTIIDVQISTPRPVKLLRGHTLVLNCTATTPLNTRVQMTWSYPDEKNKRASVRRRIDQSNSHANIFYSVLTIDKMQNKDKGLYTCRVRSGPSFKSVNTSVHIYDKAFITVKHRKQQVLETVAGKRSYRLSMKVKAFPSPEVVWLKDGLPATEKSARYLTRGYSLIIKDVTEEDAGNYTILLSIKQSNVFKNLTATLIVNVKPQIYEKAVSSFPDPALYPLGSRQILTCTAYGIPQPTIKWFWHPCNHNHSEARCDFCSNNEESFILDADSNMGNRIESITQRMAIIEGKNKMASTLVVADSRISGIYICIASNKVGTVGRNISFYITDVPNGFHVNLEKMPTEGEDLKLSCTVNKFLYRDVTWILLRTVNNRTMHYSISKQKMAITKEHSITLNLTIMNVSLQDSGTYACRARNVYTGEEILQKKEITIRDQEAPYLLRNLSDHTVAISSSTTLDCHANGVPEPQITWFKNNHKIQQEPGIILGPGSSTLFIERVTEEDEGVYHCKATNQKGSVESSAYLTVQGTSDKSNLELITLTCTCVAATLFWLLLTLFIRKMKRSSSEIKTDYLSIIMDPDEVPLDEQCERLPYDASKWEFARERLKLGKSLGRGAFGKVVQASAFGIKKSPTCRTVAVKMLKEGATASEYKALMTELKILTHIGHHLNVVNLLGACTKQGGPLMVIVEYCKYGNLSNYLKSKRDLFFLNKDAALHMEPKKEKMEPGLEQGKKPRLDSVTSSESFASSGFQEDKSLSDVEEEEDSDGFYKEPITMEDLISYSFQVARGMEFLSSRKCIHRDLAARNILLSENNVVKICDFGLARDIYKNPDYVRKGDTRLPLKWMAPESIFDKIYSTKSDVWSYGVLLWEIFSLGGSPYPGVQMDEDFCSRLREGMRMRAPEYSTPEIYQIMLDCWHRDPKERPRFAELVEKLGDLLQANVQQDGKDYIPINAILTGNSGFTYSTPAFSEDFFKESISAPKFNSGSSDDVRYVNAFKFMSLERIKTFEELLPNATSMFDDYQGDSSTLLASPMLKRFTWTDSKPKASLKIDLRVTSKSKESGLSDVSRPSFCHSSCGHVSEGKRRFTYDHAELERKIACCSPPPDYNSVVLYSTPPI
Source text: as §1, §2

Flt4(h) (VEGFr3) = Flt4(h) (VEGFr3) (Homo sapiens, UniProt P35916); assay: Kinase inhibition; assay type: biochemical
Source text: as §1, §2

PDGFRα(h) = PDGFRα(h) (Homo sapiens, UniProt P16234); assay: Kinase inhibition; assay type: biochemical
Sequence of PDGFRα(h) (P16234 24-1089): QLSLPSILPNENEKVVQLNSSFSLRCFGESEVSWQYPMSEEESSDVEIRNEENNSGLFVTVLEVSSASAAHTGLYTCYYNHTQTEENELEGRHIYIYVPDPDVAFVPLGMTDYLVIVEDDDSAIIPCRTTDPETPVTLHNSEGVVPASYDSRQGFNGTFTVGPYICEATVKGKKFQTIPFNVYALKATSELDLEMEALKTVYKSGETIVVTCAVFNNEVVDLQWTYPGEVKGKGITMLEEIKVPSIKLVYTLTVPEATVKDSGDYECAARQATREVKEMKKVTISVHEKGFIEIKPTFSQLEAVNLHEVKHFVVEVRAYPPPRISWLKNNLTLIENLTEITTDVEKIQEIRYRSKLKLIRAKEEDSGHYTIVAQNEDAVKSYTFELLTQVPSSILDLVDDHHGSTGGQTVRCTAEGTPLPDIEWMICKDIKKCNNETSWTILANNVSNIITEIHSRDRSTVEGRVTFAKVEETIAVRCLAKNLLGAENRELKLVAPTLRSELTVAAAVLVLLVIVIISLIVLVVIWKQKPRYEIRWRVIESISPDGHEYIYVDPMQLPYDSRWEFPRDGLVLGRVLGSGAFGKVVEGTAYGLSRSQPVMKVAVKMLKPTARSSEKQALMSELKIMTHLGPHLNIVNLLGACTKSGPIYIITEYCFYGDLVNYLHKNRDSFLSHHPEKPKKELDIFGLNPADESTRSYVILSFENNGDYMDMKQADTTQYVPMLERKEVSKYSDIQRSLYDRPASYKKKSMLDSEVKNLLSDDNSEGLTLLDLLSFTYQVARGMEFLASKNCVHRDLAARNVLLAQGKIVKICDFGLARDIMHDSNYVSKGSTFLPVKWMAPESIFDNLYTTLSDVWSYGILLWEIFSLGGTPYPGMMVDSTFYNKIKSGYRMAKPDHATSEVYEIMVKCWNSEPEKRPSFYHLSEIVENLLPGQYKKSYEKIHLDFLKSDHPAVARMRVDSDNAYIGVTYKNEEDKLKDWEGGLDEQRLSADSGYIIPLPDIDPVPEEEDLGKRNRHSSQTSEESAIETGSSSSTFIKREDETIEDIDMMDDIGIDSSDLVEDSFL
Source text: (§3) […]. In vitro tyrosine kinase inhibition activities can be measured via commercial resources. Some of these tests can also be contracted with Eurofin or Reaction Biology for screening.
(§4) For the kinase inhibition tests, receptor tyrosine kinases are selected from FGFR1(h), FGFR2(h), FGFR3(h), Flt1(h) (VEGFr1), Flt4(h) (VEGFr3), KDR(h) (VEGFr2), Aurora-B, PDGFRα(h) and PDGFRβ(h). […] […].

PDGFRβ(h) = PDGFRβ(h) (Homo sapiens, UniProt P09619); assay: Kinase inhibition; assay type: biochemical
Source text: as §3, §4

A2780 = assay: In vitro MTT (proliferation) assay; assay type: cell-based; conditions: Homo sapiens, Ovary
HL-60 = assay: In vitro MTT (proliferation) assay; assay type: cell-based; conditions: Homo sapiens, Blood
Molt-4 = assay: In vitro MTT (proliferation) assay; assay type: cell-based; conditions: Homo sapiens, Blood
95-D = assay: In vitro MTT (proliferation) assay; assay type: cell-based; conditions: Lung
BEL-7402 = assay: In vitro MTT (proliferation) assay; assay type: cell-based; conditions: Homo sapiens, Liver
HepG2 = assay: In vitro MTT (proliferation) assay; assay type: cell-based; conditions: Homo sapiens, Liver
786-O = assay: In vitro MTT (proliferation) assay; assay type: cell-based; conditions: Homo sapiens, 786-0, Kidney
SGC7901 = assay: In vitro MTT (proliferation) assay; assay type: cell-based; conditions: Homo sapiens, SGC-7901, Stomach
NSCLC 95-D = assay: In vivo xenograft model; set-up: species or system nude mouse; conditions: 95-D xenograft, oral daily 14-21 days, tumor weight vs control
Method: (§5) Animal antitumor activity in vivo xenograft models with various tumor cell lines (SCLC NCI-H1436, NSCLC 95-D, ovarian SKVO3, renal 786-O, liver Bel-7420, brain U87) were performed as follows: The well grown tumor tissues of tumor cell lines were cut into 3 mm pieces, and each nude mouse was subcutaneously inoculated with one piece into the right flank. The animals were grouped and administered at pre-designed dosing. Treatments were initiated when the tumor size reached above 100 mm^3 after 10-14 days. According to the size of tumor, the animals with oversize or undersize tumors were eliminated, and the animals were grouped with similar average tumor volume. Then the animals were orally administrated daily for continuous 14-21 days. The large diameter a (mm) and the small diameter b (mm) were measured with caliper twice a week after inoculation for 13 days. Each tumor volume was calculated by formular: TV=ab^2/2 and the relative tumor volume was calculated as: RTV=Vt/Vo, Vo represents the tumor volume on the first day of treatment; Vt represents the tumor volume on each measurement day. The animals were executed and tumors were extracted by dissection 20-30 days after inoculation. The individual body weight and tumor weight were determined and calculated. Tumor Inhibit percentage was calculated as [1−((TWt)/(TWc)×100%, where TWt represents mean tumor weight of a treated group on the last day during the experiment, TWc represents mean tumor weight of the control group on the last day during the experiment. Experimental dosing and efficacy results are shown in FIGS. 19-24 of Drawing. The best tumor inhibition percentage ranges are >70% to 100%.

SCLC NCI-H1436 = assay: In vivo xenograft model; set-up: species or system nude mouse; conditions: oral daily 14-21 days, tumor weight vs control
Method: as §5

brain U87 = assay: In vivo xenograft model; set-up: species or system nude mouse; conditions: oral daily 14-21 days, tumor weight vs control
Method: as §5

liver Bel-7420 = assay: In vivo xenograft model; set-up: species or system nude mouse; conditions: Bel-7420 xenograft, oral daily 14-21 days, tumor weight vs control
Method: as §5

ovarian SKVO3 = assay: In vivo xenograft model; set-up: species or system nude mouse; conditions: oral daily 14-21 days, tumor weight vs control
Method: as §5

renal 786-O = assay: In vivo xenograft model; set-up: species or system nude mouse; conditions: 786-O xenograft, oral daily 14-21 days, tumor weight vs control
Method: as §5

Sequence of Aurora-B (Q96GD4 whole entry): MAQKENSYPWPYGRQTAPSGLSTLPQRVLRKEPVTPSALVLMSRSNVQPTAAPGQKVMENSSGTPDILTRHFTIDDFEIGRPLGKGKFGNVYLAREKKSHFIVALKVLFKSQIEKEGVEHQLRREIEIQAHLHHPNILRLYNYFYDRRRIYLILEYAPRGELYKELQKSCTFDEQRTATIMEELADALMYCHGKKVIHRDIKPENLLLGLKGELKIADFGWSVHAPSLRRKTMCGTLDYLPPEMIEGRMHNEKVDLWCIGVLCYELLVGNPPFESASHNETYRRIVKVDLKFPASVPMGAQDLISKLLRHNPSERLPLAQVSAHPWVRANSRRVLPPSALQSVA

COc1cc2c(Oc3ccc4[nH]c(C)cc4c3F)ccnc2cc1OCCN1CC(O)C2(CC2)C1 (stereo not shown) [Compound A-Xln, 5-(2-(4-(4-fluoro-2-methyl-1H-indol-5-yloxy)-6-methoxyquinolin-7-yloxy)ethyl)-5-azaspiro[2.4]-heptan-7-ol]
IC50 (Aurora-B): 47 nM
IC50 (FGFR1(h)): 4 nM
IC50 (FGFR2(h)): 8 nM
IC50 (FGFR3(h)): 6 nM
IC50 (Flt1(h) (VEGFr1)): 4 nM
IC50 (Flt4(h) (VEGFr3)): 2 nM
IC50 (PDGFRα(h)): 160 nM
IC50 (PDGFRβ(h)): 26 nM
IC50 (A2780): 2630 ± 270 nM
IC50 (HL-60): 1980 ± 1130 nM
IC50 (Molt-4): 5530 ± 2780 nM
IC50 (95-D): 4920 ± 2260 nM
IC50 (BEL-7402): 860 ± 150 nM
IC50 (HepG2): 9120 ± 3060 nM
IC50 (786-O): 10100 ± 3970 nM
IC50 (SGC7901): 6640 ± 810 nM
best tumor inhibition percentage (NSCLC 95-D): > 70%
best tumor inhibition percentage (SCLC NCI-H1436): > 70%
best tumor inhibition percentage (brain U87): > 70%
best tumor inhibition percentage (liver Bel-7420): > 70%
best tumor inhibition percentage (ovarian SKVO3): > 70%
best tumor inhibition percentage (renal 786-O): > 70%
